From patent publication US20250163052A1, “cGAS INHIBITORS AND USES THEREOF” (Cornell University, priority 2022, published 2025) come the findings set out here.

The subject of series [1] is THP1 cells. The experiment in a line: THP1-Dual cells, cell viability (CellTiter-Glo). The class given is cell-based. The method, then: (§1) Evaluation of active cGAS inhibitors in THP1 cells (Table 3). Cellular activity of all compounds (in Table 3) was determined using THP1-Dual™ cells as described (Lama et. al., 2019). THP1-Dual™ cells (Invivogen) (50000 cells in 100 μl media) were seeded into each well of a 96-well plate and treated with compounds at various dilution for 4 hours. Subsequently, cells were transfected with DNA (2 ug/ml) and lipofectamine and incubate the cells were incubated overnight. Ifnb expression was measured in cell supernatant using Quantiluc, nfkb expression was determined using Quantiblue, and cell viability using Promega® CellTiter-Glo®.

The target in series [2] is h-cGAS (Homo sapiens, UniProt Q8N884). Briefly: Cell-free human cGAS enzyme inhibition assay (ATP depletion, Kinase-Glo Max). To be noted: 3 h; for inhibition at 10 µM: read-out: h-cGAS, conc. 10 μM; for inhibition at 1 µM: read-out: h-cGAS, conc. 1 μM. In kind it is biochemical. The method, then:
(§2) Cell-free mouse and human cGAS enzyme inhibition assay (Table 2). Activity of all compounds (in Table 1) against m-cGAS (30 nM) and or h-cGAS, (100 nM) was determined by measuring the conversion of ATP and GTP (100 μM each) to cGAMP in the presence of dsDNA (5 ug/mL) in a reaction buffer composed of Tris-HCl (20 mM, pH7.4), NaCl (150 mM), MnCl2 (0.2 mM, h-cGAS) or MgCl2 (5 mM, m-cGAS) and Tween-20 (0.01%), and the remaining ATP concentration using Kinase-Glo®Max Luminescent Kinase Assay (Promega, Madison, WI), as described (Lama, et. al., 2019). Briefly, 10 μl of a master mix of 0.4 mM ATP, 0.4 mM GTP, 0.02 mg/mL dsDNA in the reaction buffer supplemented with 2 mM DTT was added to reaction wells containing TDI-6570 or TDI-8246 (2× of the desired concentration) in the same buffer ([…]) using a Thermo 8-channel Multidrop Combi dispenser. Next, 10 μl of a 4×m-cGAS (0.120 μM) or h-cGAS (0.4 μM) solution in the reaction buffer supplemented with 2 mM DTT was added to appropriate wells. Similar sets of reactions without cGAS or the inhibitor was set by adding the buffer alone. The reactions with the plates sealed were incubated at 37° C. (1 hour for m-cGAS and 3 hours for h-cGAS) and stopped by addition of 40 μl of the Kinase-Glo®Max. The luminescence was recorded in relative light units (RLUs) using a Biotek Synergy H1 Hybrid plate reader (BioTek, Winooski, VT). […] All reactions were run in triplicates and calculated using GraphPad Prism 9. The values represent mean IC50±S.D.
A general note: Kinase-Glo measures the ATP left after a reaction by luminescence.

The subject of series [3] is NFkB-SEAP. Briefly: THP1-Dual cells transfected with DNA, nfkb expression (Quantiblue). The class given is cell-based. To be noted: Homo sapiens; for inhibition at 10 µM: THP-1, 10 μM; for inhibition at 30 µM: THP-1, 30 μM. As for the experimental part:
as §1

Series [4] addresses m-cGAS (Mus musculus, UniProt Q8C6L5). Briefly: Cell-free mouse cGAS enzyme inhibition assay (ATP depletion, Kinase-Glo Max). The class given is biochemical. As to conditions: 1 h; for inhibition at 10 µM: read-out: m-cGAS, conc. 10 μM; for inhibition at 1 µM: read-out: m-cGAS, conc. 1 μM. The method, then: as §2
Series [5] relates to IFNB. The experiment in a line: THP1-Dual cells transfected with DNA, Ifnb expression (Quantiluc). The class given is cell-based. As to conditions: Homo sapiens; for inhibition at 10 µM: THP-1, 10 μM; for inhibition at 30 µM: THP-1, 30 μM. The method, then:
as §1

Sequence of h-cGAS (Q8N884 whole entry): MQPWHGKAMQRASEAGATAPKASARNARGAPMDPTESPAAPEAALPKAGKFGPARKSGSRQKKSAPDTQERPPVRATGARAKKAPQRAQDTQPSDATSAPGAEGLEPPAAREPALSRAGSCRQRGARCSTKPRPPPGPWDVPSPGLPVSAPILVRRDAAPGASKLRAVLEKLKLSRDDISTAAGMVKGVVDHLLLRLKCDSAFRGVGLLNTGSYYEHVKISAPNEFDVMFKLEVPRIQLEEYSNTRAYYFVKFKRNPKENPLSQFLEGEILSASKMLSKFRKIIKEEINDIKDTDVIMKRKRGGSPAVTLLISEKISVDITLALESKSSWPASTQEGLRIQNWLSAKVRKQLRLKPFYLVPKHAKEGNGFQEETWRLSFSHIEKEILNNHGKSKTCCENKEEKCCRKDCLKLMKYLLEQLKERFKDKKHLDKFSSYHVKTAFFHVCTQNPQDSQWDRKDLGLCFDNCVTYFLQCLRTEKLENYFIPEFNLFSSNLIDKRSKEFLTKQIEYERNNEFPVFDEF
Sequence of m-cGAS (Q8C6L5 whole entry): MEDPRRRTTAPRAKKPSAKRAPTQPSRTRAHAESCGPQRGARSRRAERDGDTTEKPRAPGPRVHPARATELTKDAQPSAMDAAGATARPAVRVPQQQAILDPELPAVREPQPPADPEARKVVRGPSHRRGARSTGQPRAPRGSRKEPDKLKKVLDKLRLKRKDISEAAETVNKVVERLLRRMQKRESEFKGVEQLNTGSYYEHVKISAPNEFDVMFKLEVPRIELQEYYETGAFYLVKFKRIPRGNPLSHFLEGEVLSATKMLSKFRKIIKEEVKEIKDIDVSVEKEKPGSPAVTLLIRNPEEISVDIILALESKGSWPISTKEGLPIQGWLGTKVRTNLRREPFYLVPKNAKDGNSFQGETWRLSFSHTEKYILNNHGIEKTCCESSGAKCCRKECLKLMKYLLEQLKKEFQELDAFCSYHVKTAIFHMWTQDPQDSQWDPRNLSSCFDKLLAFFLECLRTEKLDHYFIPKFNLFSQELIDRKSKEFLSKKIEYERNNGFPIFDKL

Consider `NCC(=O)N1CCc2c(sc3c(Cl)c(Cl)cc(-n4ccnc4)c23)C1` [Compound 97], for which the “Cell viability 10 μM” value in series [1] was “+++ (+, ++, and +++ mean the compound respectively shows 25-49%; 50-74%; or 75-100% viability to cells)”. Besides, the “Cell viability 30 μM” value in series [1] was “+++ (+, ++, and +++ mean the compound respectively shows 25-49%; 50-74%; or 75-100% viability to cells)”. Besides, the inhibition at 10 µM in series [2] lay within 25 to 49%; in series [3], 25 to 49%; in series [4], 50 to 74%; in series [5] it was 50 to 74%. The inhibition at 30 µM in series [3] and in series [5] was 75 to 100% throughout.

On to `Cn1c2c(c3c(-c4ccc(N)nc4)cc(Cl)c(Cl)c31)CN(C(=O)C1CCCN1)CC2` (stereo not shown) [Compound 17], for which, in series [1], the “Cell viability 10 μM” value is “+++ (+, ++, and +++ mean the compound respectively shows 25-49%; 50-74%; or 75-100% viability to cells)”; the “Cell viability 30 μM” value was “++ (+, ++, and +++ mean the compound respectively shows 25-49%; 50-74%; or 75-100% viability to cells)”. Also, in series [2], the inhibition at 1 µM fell in the range of 25 to 49% and the inhibition at 10 µM was 75 to 100%. In series [3], this compound yielded an inhibition at 10 µM of 25 to 49% and an inhibition at 30 µM of 75 to 100%. Moreover, the inhibition at 10 µM in series [4] lay in the range of 0 to 24%. In series [5], this compound had an inhibition at 10 µM of 25 to 49% and an inhibition at 30 µM of 75 to 100%.

For `NCC(=O)N1CCc2c(sc3c(Cl)c(Cl)cc(-c4ccsc4)c23)C1` [Compound 82], in series [1], the “Cell viability 10 μM” value is “+++ (+, ++, and +++ mean the compound respectively shows 25-49%; 50-74%; or 75-100% viability to cells)”; the “Cell viability 30 μM” value was “+ (+, ++, and +++ mean the compound respectively shows 25-49%; 50-74%; or 75-100% viability to cells)”. In series [2], the inhibition at 1 µM lay within 0 to 24% and the inhibition at 10 µM was in the range of 50 to 74%. In series [3], the inhibition at 10 µM was 75 to 100% and the inhibition at 30 µM was in the range of 75 to 100%. In series [4], the inhibition at 1 µM fell in the range of 0 to 24% and the inhibition at 10 µM lay within 50 to 74%. Also, in series [5], the inhibition at 10 µM fell in the range of 50 to 74% and the inhibition at 30 µM was in the range of 75 to 100%.

Consider `O=C(CO)N1CCc2sc3c(Cl)c(Cl)cc(-c4ccco4)c3c2C1` [Compound 52], for which, in series [1], the “Cell viability 10 μM” value is “+++ (+, ++, and +++ mean the compound respectively shows 25-49%; 50-74%; or 75-100% viability to cells)”; the “Cell viability 30 μM” value was “+++ (+, ++, and +++ mean the compound respectively shows 25-49%; 50-74%; or 75-100% viability to cells)”. In addition, in series [2], the inhibition at 1 µM is 0 to 24% and the inhibition at 10 µM was 50 to 74%. In series [4], the inhibition at 10 µM fell in the range of 0 to 24%. In series [5], the inhibition at 10 µM lay within 25 to 49% and the inhibition at 30 µM was in the range of 75 to 100%.

Turning to `NCC(=O)N1CCc2oc3c(Cl)c(Cl)cc(-c4cncnc4)c3c2C1` [Compound 32], in series [1], the “Cell viability 10 μM” value was “+++ (+, ++, and +++ mean the compound respectively shows 25-49%; 50-74%; or 75-100% viability to cells)”; the “Cell viability 30 μM” value is “+++ (+, ++, and +++ mean the compound respectively shows 25-49%; 50-74%; or 75-100% viability to cells)”. Further, in series [2], the inhibition at 1 µM lay in the range of 25 to 49% and the inhibition at 10 µM lay within 50 to 74%. In series [3], this compound showed an inhibition at 10 µM of less than 24% and an inhibition at 30 µM of less than 24%. Moreover, in series [4], the inhibition at 1 µM was 50 to 74% and the inhibition at 10 µM was in the range of 75 to 100%. In series [5], this compound gave an inhibition at 10 µM of less than 24% and an inhibition at 30 µM of less than 24%.

Consider `O=C(CO)N1CCc2sc3c(Cl)c(Cl)cc(-c4cn[nH]c4)c3c2C1` [Compound 51], for which, in series [1], the “Cell viability 10 μM” value was “+++ (+, ++, and +++ mean the compound respectively shows 25-49%; 50-74%; or 75-100% viability to cells)”; the “Cell viability 30 μM” value is “+++ (+, ++, and +++ mean the compound respectively shows 25-49%; 50-74%; or 75-100% viability to cells)”. Besides, in series [2], the inhibition at 1 µM fell in the range of 0 to 24% and the inhibition at 10 µM was 25 to 49%. For the same compound, the inhibition at 10 µM in series [4] was in the range of 0 to 24%. For the same compound, in series [5], the inhibition at 10 µM is 25 to 49% and the inhibition at 30 µM was 75 to 100%.

Take `Nc1ccc(-c2cc(Cl)c(Cl)c3sc4c(c23)CN(C(=O)[C@H]2CCCN2)CC4)cn1` [Compound 57]: in series [1], the “Cell viability 10 μM” value was “− (Cell viability <24%, in THP1 cells is expressed as “−”)” and the “Cell viability 30 μM” value is listed as “− (Cell viability <24%, in THP1 cells is expressed as “−”)”. Also, the inhibition at 10 µM in series [2] fell in the range of 50 to 74%. The inhibition at 10 µM in series [4] was 0 to 24%. In series [5], this compound yielded an inhibition at 10 µM of 75 to 100% and an inhibition at 30 µM of 75 to 100%.

Regarding `Cn1ccc(-c2cc(Cl)c(Cl)c3sc4c(c23)CN(C(=O)CO)CC4)n1` [Compound 46], in series [1], the “Cell viability 10 μM” value is “+++ (+, ++, and +++ mean the compound respectively shows 25-49%; 50-74%; or 75-100% viability to cells)”; the “Cell viability 30 μM” value is “++ (+, ++, and +++ mean the compound respectively shows 25-49%; 50-74%; or 75-100% viability to cells)”. For the same compound, in series [2], the inhibition at 1 µM fell in the range of 50 to 74% and the inhibition at 10 µM is 75 to 100%. Besides, the inhibition at 10 µM in series [4] lay within 0 to 24%. In series [5], this compound registered an inhibition at 10 µM of 25 to 49% and an inhibition at 30 µM of 75 to 100%.

As to `CC(C)(N)C(=O)N1CCc2sc3c(Cl)c(Cl)cc(-c4ccc(N)nc4)c3c2C1` [Compound 56], in series [1], the “Cell viability 10 μM” value was “+ (+, ++, and +++ mean the compound respectively shows 25-49%; 50-74%; or 75-100% viability to cells)”; the “Cell viability 30 μM” value is “− (Cell viability <24%, in THP1 cells is expressed as “−”)”. For the same compound, the inhibition at 10 µM in series [2] fell in the range of 50 to 74%. For the same compound, the inhibition at 10 µM in series [4] is 0 to 24%. Besides, in series [5], the inhibition at 10 µM fell in the range of 75 to 100% and the inhibition at 30 µM was in the range of 75 to 100%.

For the compound `Nc1ccc(-c2cc(Cl)c(Cl)c3[nH]c4c(c23)CN(C(=O)C2(N)CC2)CC4)cn1` [Compound 19], the inhibition at 10 µM in series [2] and in series [4] was 0 to 24% each time.

On to `CC(C)(N)C(=O)N1CCc2sc3c(Cl)c(Cl)cc(-c4cc[nH]n4)c3c2C1` [Compound 55], for which the inhibition at 10 µM in series [2] and in series [4] was 0 to 24% throughout.

Take `NCC(=O)N1CCc2nc3c(Cl)c(Cl)cc(-c4cncnc4)n3c2C1` [Compound 100]: the inhibition at 10 µM in series [2] and in series [4] was 0 to 24% in each case.

Turning to `CC(C)(C)OC(=O)N1CCCC1C(=O)N1CCc2[nH]c3c(Cl)c(Cl)cc(-c4ccc(N)nc4)c3c2C1` (stereo not shown) [Compound 13], the inhibition at 10 µM in series [2] and in series [4] was 0 to 24% throughout.

Take `Nc1ccc(-c2cc(Cl)c(Cl)c3oc4c(c23)CN(C(=O)CO)CC4)cn1` [Compound 26]: in series [1], the “Cell viability 10 μM” value was “+++ (+, ++, and +++ mean the compound respectively shows 25-49%; 50-74%; or 75-100% viability to cells)”; the “Cell viability 30 μM” value is “+++ (+, ++, and +++ mean the compound respectively shows 25-49%; 50-74%; or 75-100% viability to cells)”. Also, in series [2], the inhibition at 1 µM lay within 50 to 74% and the inhibition at 10 µM is 75 to 100%. Also, the inhibition at 10 µM in series [4] was in the range of 25 to 49%. In series [5], this compound displayed an inhibition at 10 µM of 50 to 74% and an inhibition at 30 µM of 75 to 100%.

With `O=C(CO)N1CCc2sc3c(Cl)c(Cl)cc(-c4cc[nH]n4)c3c2C1` [Compound 50], the inhibition at 10 µM in series [2] and in series [4] was 0 to 24% throughout.

Turning to `Cn1c2c(c3c(-c4ccc(N)nc4)cc(Cl)c(Cl)c31)CN(C(=O)C1CCCN1C(=O)OC(C)(C)C)CC2` (stereo not shown) [Compound 14], the inhibition at 10 µM in series [2] and in series [4] was 0 to 24% each time.

Take `Cn1cc(-c2cc(Cl)c(Cl)c3nc4c(n23)CN(C(=O)CN)CC4)cn1` [Compound 101]: the inhibition at 10 µM in series [2] and in series [4] was 0 to 24% in each case.

Turning to `Cn1ccc(-c2cc(Cl)c(Cl)c3sc4c(c23)CCN(C(=O)CO)C4)n1` [Compound 60], the inhibition at 10 µM in series [2] lay within 25 to 49%. Also, in series [4], the inhibition at 1 µM fell in the range of 0 to 24% and the inhibition at 10 µM is 50 to 74%.
